Test system: C57BL/6 mice
Assay: animal or person
Assay type: in vivo
Settings: Mus musculus, sc, 0.5 h, s.c. administration, 30 min, 55° C. water, read-out: ED50 (mg/kg) at 30 min on C57BL/6 mice in Warm-water Tail-flick Test

CCOCC1(CCc2ccc(C)s2)CCN(Cc2ccc(C)nc2)CC1 [Compound 304, 5-((4-(ethoxymethyl)-4-(2-(5-methylthiophen-2-yl)ethyl)piperidin-1-yl)methyl)-2-methylpyridine]
ED50: < 10 mg/kg

CCOCC1(CCc2ccccc2)CCN(C(C)c2ccc(C)nc2C)C1 (centres unmarked) [Compound 305, 3-(1-(3-(ethoxymethyl)-3-phenethylpyrrolidin-1-yl)ethyl)-2,6-dimethylpyridine]
ED50: < 10 mg/kg

CCOCC1(CCc2ccsc2)CCN(Cc2ccc(C)nc2C)C1 (centres unmarked) [Compound 306, 3-((3-(ethoxymethyl)-3-(2-(thiophen-3-yl)ethyl)pyrrolidin-1-yl)methyl)-2,6-dimethylpyridine]
ED50: < 10 mg/kg

CCOC[C@@]1(CCc2ccccc2)CCN(Cc2ccc(C)nc2C)C1 [Compound 307, (S)-3-((3-(ethoxymethyl)-3-phenethylpyrrolidin-1-yl)methyl)-2,6-dimethylpyridine]
ED50: < 10 mg/kg

CCOCC1(CCc2nc3ccccc3o2)CCN(Cc2cccnc2)C1 (centres unmarked) [Compound 308, 2-(2-(3-(ethoxymethyl)-1-(pyridin-3-ylmethyl)pyrrolidin-3-yl)ethyl)benzo[d]oxazole]
ED50: > 10 mg/kg

CCOCC1(CCc2csc3ccccc23)CCN(Cc2cccnc2)C1 (centres unmarked) [Compound 309, 3-((3-(2-(benzo[b]thiophen-3-yl)ethyl)-3-(ethoxy-methyl)pyrrolidin-1-yl)methyl)pyridine]
ED50: > 10 mg/kg

Cc1ccc(CN2CCC(CCc3ccccc3)(c3ccccn3)CC2)c(C)n1 [Compound 310, 2,6-dimethyl-3-((4-phenethyl-4-(pyridin-2-yl)piperidin-1-yl)methyl)pyridine]
ED50: < 10 mg/kg

CCOCC1(CCc2ccc(F)cc2)CCN(Cc2ccc(C)nc2C)C1 (centres unmarked) [Compound 311, 3-((3-(ethoxymethyl)-3-(4-fluoro-phenethyl)pyrrolidin-1-yl)methyl)-2,6-dimethylpyridine]
ED50: < 10 mg/kg

CCOCC1(CCc2cc(C)sc2C)CCN(Cc2cnn(C)c2)C1 (centres unmarked) [Compound 312, 4-((3-(2-(2,5-dimethylthiophen-3-yl)ethyl)-3-(ethoxy-methyl)pyrrolidin-1-yl)methyl)-1-methyl-1H-pyrazole]
ED50: < 10 mg/kg

CCOCC1(c2ccccn2)CCN(Cc2ccc(C)nc2C)C1 (centres unmarked) [Compound 313, 3-((3-(ethoxymethyl)-3-(pyridin-2-yl)pyrrolidin-1-yl)methyl)-2,6-dimethylpyridine]
ED50: > 10 mg/kg

COCCC1(c2ccccn2)CCN(Cc2ccc(C)nc2C)C1 (centres unmarked) [Compound 314, 3-((3-(2-methoxyethyl)-3-(pyridin-2-yl)pyrrolidin-1-yl)methyl)-2,6-dimethylpyridine]
ED50: > 10 mg/kg

CCOCC1(CCc2ccccc2)CCN(Cc2cccn2-c2cccnc2)C1 (centres unmarked) [Compound 315, 3-(2-((3-(ethoxymethyl)-3-phenethylpyrrolidin-1-yl)methyl)-1H-pyrrol-1-yl)pyridine]
ED50: > 10 mg/kg

CCOCC1(CCc2ccccc2)CCN(Cc2ccccc2-c2cccs2)C1 (centres unmarked) [Compound 316, 3-(ethoxymethyl)-3-phenethyl-1-(2-(thiophen-2-yl)benzyl)pyrrolidine]
ED50: > 10 mg/kg

CCOCC1(CCc2ccccc2)CCN(Cc2ccccc2-c2ccco2)C1 (centres unmarked) [Compound 317]
ED50: > 10 mg/kg

CCOC[C@@]1(CCc2ccsc2)CCN(Cc2ccc(C)nc2)C1 [Compound 318, (S)-5-((3-(ethoxymethyl)-3-(2-(thiophen-3-yl)ethyl)pyrrolidin-1-yl)methyl)-2-methylpyridine]
ED50: < 10 mg/kg

CCOC[C@@]1(CCc2ccccc2)CCN(Cc2ccc(C)nc2)C1 [Compound 319, (S)-5-((3-(ethoxymethyl)-3-phenethylpyrrolidin-1-yl)methyl)-2-methylpyridine]
ED50: < 10 mg/kg

CCOC[C@@]1(CCc2ccc(F)cc2)CCN(Cc2ccc(C)nc2)C1 [Compound 320, (S)-5-((3-(ethoxymethyl)-3-(4-fluoro-phenethyl)pyrrolidin-1-yl)methyl)-2-methylpyridine]
ED50: < 10 mg/kg

CCOC[C@@]1(CCc2cc(C)cs2)CCN(Cc2ccc(C)nc2)C1 [Compound 321, (S)-5-((3-(ethoxymethyl)-3-(2-(4-methylthiophen-2-yl)ethyl)pyrrolidin-1-yl)methyl)-2-methylpyridine]
ED50: < 10 mg/kg

CCOC[C@@]1(CCc2ccc(F)cc2)CCN(Cc2cccnc2)C1 [Compound 322, (S)-3-((3-(ethoxymethyl)-3-(4-fluorophenethyl)pyrrolidin-1-yl)methyl)pyridine]
ED50: < 10 mg/kg

CCOC[C@@]1(CCc2csc(C)c2)CCN(Cc2cccnc2)C1 [Compound 323, (S)-3-((3-(ethoxymethyl)-3-(2-(5-methylthiophen-3-yl)ethyl)pyrrolidin-1-yl)methyl)pyridine]
ED50: < 10 mg/kg

CCOC[C@@]1(CCc2ccsc2)CCN(Cc2ccc(NC(C)=O)cc2)C1 [Compound 324, (S)-N-(4-((3-(ethoxymethyl)-3-(2-(thiophen-3-yl)ethyl)pyrrolidin-1-yl)methyl)phenyl)acetamide]
ED50: < 10 mg/kg

CCOCC1(CCc2ccccc2)CCN(C(C)c2cccnc2)CC1 (centres unmarked) [Compound 327, 3-(1-(4-(ethoxymethyl)-4-phenethylpiperidin-1-yl)ethyl)pyridine]
ED50: < 10 mg/kg

Cc1ccc(C(C)N2CCC(CCc3ccccc3)(c3ccccn3)CC2)c(C)n1 (centres unmarked) [Compound 328, 2,6-dimethyl-3-(1-(4-phenethyl-4-(pyridin-2-yl)piperidin-1-yl)ethyl)pyridine]
ED50: < 10 mg/kg

CCOC[C@@]1(CCc2cc(C)cs2)CCN(Cc2ccc(C)nc2C)C1 [Compound 329, (S)-3-((3-(ethoxymethyl)-3-(2-(4-methylthiophen-2-yl)ethyl)pyrrolidin-1-yl)methyl)-2,6-dimethylpyridine]
ED50: < 10 mg/kg

CCOC[C@@]1(CCc2csc(C)c2)CCN(Cc2ccc(C)nc2C)C1 [Compound 330, (S)-3-((3-(ethoxymethyl)-3-(2-(5-methylthiophen-yl)ethyl)pyrrolidin-1-yl)methyl)-2,6-dimethylpyridine]
ED50: < 10 mg/kg

CCOC[C@@]1(CCc2cscc2C)CCN(Cc2ccc(C)nc2C)C1 [Compound 331, (S)-3-((3-(ethoxymethyl)-3-(2-(4-methylthiophen-3-yl)ethyl)pyrrolidin-1-yl)methyl)-2,6-dimethylpyridine]
ED50: < 10 mg/kg

CCOCC1(CCc2ccccc2)CCN(C(C)c2cnn(C)c2)C1 (stereo not drawn) [Compound 332, 4-(1-(3-(ethoxymethyl)-3-phenethylpyrrolidin-1-yl)ethyl)-l-methyl-1H-pyrazole]
ED50: < 10 mg/kg

CCOC[C@@]1(CCc2cccs2)CCN(Cc2ccc(C)nc2)C1 [Compound 333, (S)-5-((3-(ethoxymethyl)-3-(2-(thiophen-2-yl)ethyl)pyrrolidin-1-yl)methyl)-2-methylpyridine]
ED50: < 10 mg/kg

CCOC[C@@]1(CCc2cccs2)CCN(Cc2ccc(C)nc2C)C1 [Compound 334, (S)-3-((3-(ethoxymethyl)-3-(2-(thiophen-2-yl)ethyl)pyrrolidin-1-yl)methyl)-2,6-dimethylpyridine]
ED50: < 10 mg/kg

CCOC[C@@]1(CCc2csc(C)c2)CCN(Cc2ccc(C)nc2)C1 [Compound 335, (S)-5-((3-(ethoxymethyl)-3-(2-(5-methylthiophen-3-yl)ethyl)pyrrolidin-1-yl)methyl)-2-methylpyridine]
ED50: < 10 mg/kg

CCOC[C@@]1(CCc2ccsc2)CCN(Cc2ccc(C)nc2C)C1 [Compound 336]
ED50: < 10 mg/kg

CCOC[C@@]1(CCc2cc(C)cs2)CCN(Cc2cccnc2)C1.Cl [Compound 337]
ED50: < 10 mg/kg

CCOCC1(CCc2ccccc2)CCN(CC(O)c2ccc(C)nc2)C1 (centres unmarked) [Compound 338, 2-(3-(ethoxymethyl)-3-phenethylpyrrolidin-1-yl)-1-(6-methylpyridin-3-yl)ethanol]
ED50: > 10 mg/kg

Cc1ccc(N(C)N2CCC(CCc3ccccc3)(c3ccccn3)CC2)c(C)n1 [Compound 339, N,2,6-trimethyl-N-(4-phenethyl-4-(pyridin-2-yl)piperidin-1-yl)pyridin-3-amine]
ED50: > 10 mg/kg

CCOCC1(CCc2ccccc2)CCN(Cc2csc(C)n2)C1 (centres unmarked) [Compound 340, 4-((3-(ethoxymethyl)-3-phenethylpyrrolidin-1-yl)methyl)-2-methylthiazole]
ED50: > 10 mg/kg

CCOCC1(CCc2ccccc2)CCN(C(C)c2csc(C)n2)C1 (centres unmarked) [Compound 341, 4-(1-(3-(ethoxymethyl)-3-phenethylpyrrolidin-1-yl)ethyl)-2-methylthiazole]
ED50: < 10 mg/kg

CCOCC1(CCc2ccccc2)CCN(C(CO)c2ccc(C)nc2)C1 (centres unmarked) [Compound 342, 2-(3-(ethoxymethyl)-phenethylpyrrolidin-1-yl)-2-(6-methylpyridin-3-yl)ethanol]
ED50: < 10 mg/kg

CCOCC1(CCc2ccccc2)CCN(C(C)(C)c2cccnc2)C1 (centres unmarked) [Compound 343, 3-(2-(3-(ethoxymethyl)-3-phenethylpyrrolidin-1-yl)propan-2-yl)pyridine]
ED50: < 10 mg/kg

CCOC[C@@]1(CCc2ccc(F)s2)CCN(Cc2ccc(C)nc2)C1 [Compound 344]
ED50: < 10 mg/kg

CCOC[C@@]1(CCc2ccc(F)s2)CCN(Cc2cccnc2)C1 [Compound 345, (S)-3-((3-(ethoxymethyl)-3-(2-(5-fluorothiophen-2-yl)ethyl)pyrrolidin-1-yl)methyl)pyridine]
ED50: < 10 mg/kg

CCOCC1(CCc2ccccc2)CCN(C(C)c2cnc(C)s2)C1 (centres unmarked) [Compound 346, 5-(1-(3-(ethoxymethyl)-3-phenethylpyrrolidin-1-yl)ethyl)-2-methylthiazole]
ED50: < 10 mg/kg

CCOCC1(CCc2ccccc2)CCN(C(C)C(O)c2ccc(C)nc2)C1 (centres unmarked) [Compound 347, 2-(3-(ethoxymethyl)-3-phenethylpyrrolidin-1-yl)-1-(6-methylpyridin-3-yl)propan-1-ol]
ED50: > 10 mg/kg

Cc1ccc(CN2CC[C@](CCc3ccsc3)([C@@H]3CCCO3)C2)cn1 [Compound 348, 2-methyl-5-(((S)-3-((S)-tetrahydrofuran-2-yl)-3-(2-(thiophen-3-yl)ethyl)pyrrolidin-1-yl)methyl)pyridine]
ED50: < 10 mg/kg

CCOCC1(CCc2ccccn2)CCN(C(C)c2ccc(C)nc2)C1 (centres unmarked) [Compound 349, 5-(1-(3-(ethoxymethyl)-3-(2-(pyridin-2-yl)ethyl)pyrrolidin-1-yl)ethyl)-2-methylpyridine]
ED50: < 10 mg/kg
